Laboratory results taken from US5232912A, “Anticoagulant peptides” (Merrell Dow Pharmaceuticals Inc., priority 1992, dated 1993).

Target: T1, bovine thrombin (Bos taurus, UniProt P00735)
T1 construct: A bovine thrombin solution (50 ul; 0.2 pmol; Sigma); purchased Sigma
Test: Fibrin clot inhibition assay
Assay type: biochemical
Parameters: unit not given here
Conditions: bovine thrombin 0.2 pmol, 10 minute incubation at 24° C., 1:10 diluted human plasma, turbidity (A405); two-fold delay of fibrin clot present at 15 minutes in the control well
Protocol: Human plasma was collected in EDTA (final concentration=0.1%) from a healthy volunteer who had fasted for 12 hours. The plasma was immediately sterilized by passing it through a 0.2 u filter membrane (Gelman) then aliquoted into 1 ml portions and stored at -20° C. In all assays, unsulfated Nα-acetylhirudin 45-65 was included as a control. A bovine thrombin solution (50 ul; 0.2 pmol; Sigma) was added to the wells of a 96 well microtiter plate (Falcon) containing 50 ul of a solution and a 10 minute incubation at 24° C., 100 ul of 1:10 diluted human plasma in 0.12M sodium chloride, 0.01M sodium phosphate, 0.01% sodium azide, 0.1% bovine serum albumin (pH 7.4) was added. The mixture was agitated for 20 seconds and the turbidity (A405) of the solution was measured at 5 minute intervals by an autoreader (Bio-Tek Model EL 309). Reported is the ability of a 5 uM concentration of peptide to delay two-fold the amount of fibrin clot present at 15 minutes in the control well.

With `CC[C@H](C)[C@H](NC(=O)[C@@H]1CCCN1C(=O)[C@H](CCC(=O)O)NC(=O)[C@H](Cc1ccc(O)cc1)NC(=O)CCC(=O)O)C(=O)N1Cc2ccccc2C[C@H]1C(=O)N[C@@H](CCC(=O)O)C(=O)N[C@@H](CCC(=O)O)C(=O)N[C@@H](C)C(=O)N[C@@H](CC1CCCCC1)C(=O)N[C@H](CCC(=O)O)C(=O)O` [Example 6, Suc-Tyr-Glu-Pro-Ile-Tiq-Glu-Glu-Ala-Cha-D-Glu-OH] as the compound, how does the “Fibrin Clot Inhibition” value read?
The value was 0.63.

For `CC[C@H](C)[C@H](NC(=O)[C@@H]1Cc2ccccc2CN1C(=O)[C@H](CCC(=O)O)NC(=O)[C@H](Cc1ccc(O)cc1)NC(=O)CCC(=O)O)C(=O)N1CCC[C@H]1C(=O)N[C@@H](CCC(=O)O)C(=O)N[C@@H](CCC(=O)O)C(=O)N[C@@H](C)C(=O)N[C@@H](CC1CCCCC1)C(=O)N[C@H](CCC(=O)O)C(=O)O` [Example 5, Suc-Tyr-Glu-Tiq-Ile-Pro-Glu-Glu-Ala-Cha-D-Glu-OH], which “Fibrin Clot Inhibition” value is on record?
Its value is 0.82.

Which “Fibrin Clot Inhibition” value does the source give for `CC[C@H](C)[C@H](NC(=O)[C@@H]1CCCN1C(=O)[C@H](CCC(=O)O)NC(=O)[C@H](Cc1ccc(O)cc1)NC(=O)CCC(=O)O)C(=O)N1CCCC[C@H]1C(=O)N[C@@H](CCC(=O)O)C(=O)N[C@@H](CCC(=O)O)C(=O)N[C@@H](C)C(=O)N[C@@H](CC1CCCCC1)C(=O)N[C@H](CCC(=O)O)C(=O)O` [Example 1, Suc-Tyr-Glu-Pro-Ile-Pip-Glu-Glu-Ala-Cha-D-Glu-OH] here?
Its value is 0.88.

`CC[C@H](C)[C@H](NC(=O)[C@@H]1CCCCN1C(=O)[C@H](CCC(=O)O)NC(=O)[C@H](Cc1ccc(O)cc1)NC(=O)CCC(=O)O)C(=O)N1CCC[C@H]1C(=O)N[C@@H](CCC(=O)O)C(=O)N[C@@H](CCC(=O)O)C(=O)N[C@@H](C)C(=O)N[C@@H](CC1CCCCC1)C(=O)N[C@H](CCC(=O)O)C(=O)O` [Example 2, Suc-Tyr-Glu-Pip-Ile-Pro-Glu-Glu-Ala-Cha-D-Glu-OH] was tested. Which “Fibrin Clot Inhibition” value did it give?
The value was 1.9.
